Experiments:
SphK1 = SphK1 (Homo sapiens, UniProt Q9NYA1); experiment: SphK1 activity assay; type: biochemical; details: relative activity vs no inhibitor; compounds at 10 μM (FIGS. 1, 4, 6)
Experimental: A) SphK1 and SphK2 activities were measured with 5 μM sphingosine in the absence or presence of the indicated concentrations of K145 or 10 μM DMS. Data are expressed as percentage SphK activity in the absence of inhibitor; B) Effect of K145 (10 μM) on activity of the indicated enzymes was tested by SelectScreen Kinase Profiling from Invitrogen. CaMK11β, Ca2+/calmodulin-dependent protein kinase II; CDK2, cyclin-dependent kinase 2; EGFR, Epidermal Growth Factor Receptor; Fyn, Fyn Kinase (p55); ERK2, extracellular signal-regulated kinase 2; ERK1, extracellular signal-regulated kinase 1; PKA, protein kinase A; PKCα, protein kinase C α; P13K, phosphatidylinositide 3-kinase. Data are expressed as percentage of control activity averaged from 2 independent experiments.
FIG. 3. SphK2 was incubated with indicated compounds at 10 μM, then the activity of SphK2 was determined. The data shown here is a relative activity of SphK2 compared to control (no inhibitor, column labeled Sph in the Figure). 96047 is a known SpK2 inhibitor. A5, B26, K25 and QLA13 are known compounds [Li et al. (2009) Bioorg Med Chem Lett 19: 6042-6046; Liu et al. (2012) Eur J Med Chem 47: 125-137] and were tested for purposes of comparison. “A” and “B” refer to different batches of a compound. FIG. 4. SphK1 was incubated with indicated compounds at 10 μM, then the activity of SphK1 was determined. The data shown here is a relative activity of SphK1 compared to control (no inhibitor, column labeled Sph in the Figure). 96091 is a known Spk1 inhibitor. A5, B26, K25 and QLA13 are as above for […]. “A” and “B” refer to different batches of a compound.
FIG. 6. SphK1 was incubated with indicated compounds at 10 μM, then the activity of SphK2 was determined. The data shown here is a relative activity of SphK2 compared to control (no inhibitor).

SphK2 = target: T1, SphK2 (Homo sapiens, UniProt Q9NRA0); experiment: SphK2 activity assay (sphingosine substrate, with kinetic study); type: biochemical; details: relative activity vs no inhibitor; compounds at 10 μM (FIGS. 1, 3, 5)
T1 sequence (Q9NRA0 1-654): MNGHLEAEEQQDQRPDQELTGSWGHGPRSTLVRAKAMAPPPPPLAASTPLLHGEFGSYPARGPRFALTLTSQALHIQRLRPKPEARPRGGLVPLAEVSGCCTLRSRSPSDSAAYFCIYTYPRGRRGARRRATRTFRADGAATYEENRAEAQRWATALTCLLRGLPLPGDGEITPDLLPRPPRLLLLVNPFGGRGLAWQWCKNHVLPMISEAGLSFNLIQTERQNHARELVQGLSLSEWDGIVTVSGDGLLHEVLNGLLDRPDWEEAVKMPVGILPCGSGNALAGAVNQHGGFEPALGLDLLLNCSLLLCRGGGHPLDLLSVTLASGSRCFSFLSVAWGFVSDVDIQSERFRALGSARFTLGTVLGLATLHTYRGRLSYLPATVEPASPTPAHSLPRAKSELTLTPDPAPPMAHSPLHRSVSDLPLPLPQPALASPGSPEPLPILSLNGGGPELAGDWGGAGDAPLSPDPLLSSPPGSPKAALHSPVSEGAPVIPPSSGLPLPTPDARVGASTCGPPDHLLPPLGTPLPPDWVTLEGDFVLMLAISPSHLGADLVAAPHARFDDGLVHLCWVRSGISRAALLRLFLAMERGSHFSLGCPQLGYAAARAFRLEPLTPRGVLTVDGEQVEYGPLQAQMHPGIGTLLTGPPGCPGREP
Experimental: A) SphK1 and SphK2 activities were measured with 5 μM sphingosine in the absence or presence of the indicated concentrations of K145 or 10 μM DMS. […] Data are expressed as percentage of control activity averaged from 2 independent experiments. Data are expressed as mean value±SEM.
SphK2 was incubated with indicated compounds at 10 μM, then the activity of SphK2 was determined. The data shown here is a relative activity of SphK2 compared to control (no inhibitor, column labeled Sph in the Figure). […] “A” and “B” refer to different batches of a compound.
SphK2 was incubated with indicated compounds at 10 μM, then the activity of SphK2 was determined. The data shown here is a relative activity of SphK2 compared to control (no inhibitor).

[1] = test system: human leukemia U937 cells; experiment: Cell viability assay in human leukemia U937 cells; type: cell-based; details: Homo sapiens, U-937; 24 hrs treatment, MTT assay; read-out: IC50 ± SEM, inhibition of U937 cell proliferation
Experimental: Cells were cultured at a density of 5×10^4 (U937) or 1×10^4 (PC-3, DU145, M12, HT29) cells per well in flat bottomed 96-well plates and treated with various concentrations of test compound at 37° C. (5% CO2). After 24 h, 20 μL of CellTiter 96® Aqueous One Solution Reagent (Promega, Madison, Wis.) was added to each well according to the manufacturer's instructions. After 1 hour, the cell viability was determined by measuring the absorbance at 490 nm using a micro-plate reader.

U937 cells = experiment: Cell apoptosis assay, annexin V/PI flow cytometry; type: cell-based, human; details: 24 hrs treatment
Experimental: Apoptosis was measured by flow cytometry using annexin V/propidium iodide (PI) as staining reagent. […] The cells were then incubated with annexin V-fluorescein isothiocyanate (FITC) (BD PharMingen, San Diego, Calif.) and 5 μg/mL propidium iodide (PI), and incubated for 15 minutes at room temperature in the dark per the manufacturer's instructions. The samples were analyzed by flow cytometry using a Becton Dickinson FACScan (Becton Dickinson, San Jose, Calif.) within 1 hr to determine the percentage of cells displaying annexin V staining (early apoptosis) or both annexin V and PI staining (late apoptosis).

[2] = test system: Raf/MEK/ERK and PI3K/Akt signaling pathways; experiment: Western blot analysis of ERK and Akt phosphorylation; type: cell-based; details: Western blot, FIGS. 9 and 10
Experimental: Cells (5×10^5 per ml) were treated with various concentrations of test compound at 37° C. (5% CO2) for 3 hrs, then stimulated with TPA at a final concentration of 200 nM for 20 min. Samples from whole-cell pellets were prepared and 30 μg protein for each condition was subjected to SDS-PAGE, transferred onto a PVDF membrane, and blocked with 5% fat-free milk for 30 min. The membrane is probed with primary antibodies overnight at 4° C. followed by incubation with horseradish peroxidase-labeled anti-mouse IgG (1:5000, BD Bioscience). The immunoreactive bands are detected by chemilluminescence methods (Pierce) and visualized on Kodak Omat film. The following primary antibodies were used: phospho-p44/42 MAPK (ERK1/2, Thr202/Tyr204), p44/42 MAPK, phospho-p90RSK (Thr359/Ser363), RSK1/RSK2/RSK3 (Cell Signaling). Blots were reprobed with antibodies against α-tubulin to ensure equal loading and transfer of proteins.

U937 xenograft [3] = experiment: U937 xenografts in nude mice, i.p. administration; type: in vivo, BALB/c-nu mice; details: 15 mg/kg daily i.p.
Experimental: D) Body weights of mice throughout treatment. Data are expressed as mean value±SD. *P<0.05 compared to control group.
Female nude mice (BALB/c-nu, n=7) were inoculated with 3×10^7 U937 cells subcutaneously in the right flank. After 7 days of implant of U937 cells, mice were treated daily with Vehicle (control), or Tamibarotene (15 mg/Kg, positive control), or Formula III (K145) (15 mg/Kg) by i.p. administration. Tumor size was measured every other day.

U937 xenograft [4] = experiment: U937 xenografts in nude mice, oral administration; details: oral gavage daily 15 days; K145 50 mg/kg, tamibarotene 20 mg/kg
Experimental: BALB/c-nu mice (n=7) with palpable U937 xenograft were treated daily with vehicle, tamibarotene (20 mg/kg), or K145 (50 mg/kg) for 15 days by oral gavage. After treatment, animals were sacrificed and tumors were removed, weighed and images were taken. […] Data are expressed as mean value±SEM. *P<0.05 compared to control group.
In this experiment, K145 was given at 50 mg/kg by oral gavage daily for 15 days and tumor volume and animal weights were measured every other day. Again, tamibarotene (20 mg/kg) was used as positive control.

Sequence of SphK1 (Q9NYA1 whole entry, species assumed): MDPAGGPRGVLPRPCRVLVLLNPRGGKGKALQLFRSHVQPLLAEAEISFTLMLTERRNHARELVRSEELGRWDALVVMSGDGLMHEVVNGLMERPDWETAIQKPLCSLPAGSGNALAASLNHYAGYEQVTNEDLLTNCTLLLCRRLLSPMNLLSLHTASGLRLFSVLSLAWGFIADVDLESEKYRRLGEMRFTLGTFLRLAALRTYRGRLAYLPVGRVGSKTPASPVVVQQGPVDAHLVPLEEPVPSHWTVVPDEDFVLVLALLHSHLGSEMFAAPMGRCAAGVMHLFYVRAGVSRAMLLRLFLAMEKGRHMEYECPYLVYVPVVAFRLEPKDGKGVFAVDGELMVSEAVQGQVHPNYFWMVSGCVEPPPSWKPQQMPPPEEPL

SMILES | inhibition of SphK1 activity (in words) (SphK1) | inhibition of SphK2 activity (in words) (SphK2) | IC50 [1] [nM] | also measured
CCCCCCCOc1ccc(CC/C=C2\SC(=O)N(CCNC(=N)N)C2=O)cc1 [K11167] | inhibits both Sphk1 and Sphk2 | inhibits both Sphk1 and Sphk2 |  | 
CCCCCCCCCCCOc1ccc(CC/C=C2\SC(=O)N(CCN)C2=O)cc1 [KLII123] | did not inhibit SphK1 or inhibited SphK1 to a lesser extent | inhibited SphK2 selectively |  | 
CCCCCCCCCOc1ccc(CC/C=C2\SC(=O)N(CCN)C2=O)cc1 [KLII157] | did not inhibit SphK1 or inhibited SphK1 to a lesser extent | inhibited SphK2 selectively |  | 
NCCN1C(=O)C(=CCCC2CCCCC2)c2ccccc21 [S-II-36, 1-(2-aminoethyl)-3-(3-cyclohexylpropylidene)indolin-2-one] |  |  | 2700 ± 200 | 
NCCN1C(=O)C(=CCCc2ccc(F)cc2)c2ccccc21 [S-II-39, 1-(2-aminoethyl)-3-(3-(4-fluorophenyl)propylidene)indolin-2-one] |  |  | 2690 ± 60 | 
NCCN1C(=O)C(=CCCC2CC2)c2ccccc21 [S-II-40, 1-(2-aminoethyl)-3-(3-cyclopropylpropylidene)indolin-2-one] |  |  | 1160 ± 50 | 
NCCN1C(=O)C(=CCCc2ccc(Cl)cc2)c2ccccc21 [S-II-60, 1-(2-aminoethyl)-3-(3-(4-chlorophenyl)propylidene)indolin-2-one] |  |  | 4000 ± 700 | 
NCCN1C(=O)C(=CCCc2ccc([N+](=O)[O-])cc2)c2ccccc21 [S-II-61, 1-(2-aminoethyl)-3-(3-(4-nitrophenyl)propylidene)indolin-2-one] |  |  | 3600 ± 200 | 
COc1ccc(CCC=C2C(=O)N(CCN)c3ccccc32)cc1 [S-II-71, 1-(2-aminoethyl)-3-(3-(4-methoxyphenyl)propylidene)indolin-2-one] |  |  | 920 ± 40 | apoptotic effects in U937 cells (U937 cells): induced both early and late apoptotic effect; inhibition of Raf/MEK/ERK and PI3K/Akt signaling pathways [2]: inhibit
NCCN1C(=O)C(=CCCC23CC4CC(CC(C4)C2)C3)c2ccccc21 [S-II-73, 3-(3-(3r,5r,7r)-adamantan-1-yl)propylidene)-1-(2-aminoethyl)indolin-2-one] | did not inhibit SphK1 or inhibited SphK1 to a lesser extent | inhibited SphK2 selectively |  | 
CCCCOc1ccc(CCC=C2C(=O)N(CCN)c3ccccc32)cc1 [S-II-78, 1-(2-aminoethyl)-3-(3-(4-butoxyphenyl)propylidene)indolin-2-one] |  |  | 4600 ± 800 | 
CCOc1ccc(CCC=C2C(=O)N(CCN)c3ccccc32)cc1 [S-II-102, 1-(2-aminoethyl)-3-(3-(4-ethoxyphenyl)propylidene)indolin-2-one] |  |  | 950 ± 110 | 
CCCCCCCOc1ccc(CCC=C2C(=O)N(CCN)c3ccccc32)cc1 [S-II-103, 1-(2-aminoethyl)-3-(3-(4-(heptyloxy)phenyl)propylidene)indolin-2-one] | did not inhibit SphK1 or inhibited SphK1 to a lesser extent | inhibited SphK2 selectively | 3500 ± 300 | apoptotic effects in U937 cells (U937 cells): mainly induced late apoptotic effects; inhibition of Raf/MEK/ERK and PI3K/Akt signaling pathways [2]: inhibit
CCCCCCCOc1ccc(CC/C=C2/C(=O)N(CCN)c3ccccc32)cc1 [S-II-104] | did not inhibit SphK1 or inhibited SphK1 to a lesser extent | inhibited SphK2 selectively |  | 
CCCCCCCCC=C1C(=O)N(CCN)c2ccccc21 [S-II-129, 1-(2-aminoethyl)-3-nonylideneindolin-2-one] |  |  | 2128 ± 6 | 
CC1(C)CCC(C)(C)c2cc(NC(=O)c3ccc(C(=O)O)cc3)ccc21 [tamibarotene, reference compound] |  |  |  | TGI (tumor growth inhibition) (U937 xenograft [3]; 17 days): 50.4%; body weights of mice (U937 xenograft [3]; compared with vehicle): caused body weight decreases; TGI (tumor growth inhibition) (U937 xenograft [4]): 33.37%
